{"source": "patent US12133895B2", "about": "“Biodegradable functional polycarbonate nanoparticle carries for delivering molecular cargo” (International Business Machines Corporation, priority 2018, dated 2024)", "assay": "Oxidation (discoloration) of AMP in PBS", "type": "physicochemical", "details": "free AMP dissolved in PBS", "text": "FIG. 10 illustrates a diagram of example, non-limiting photos 1000 of a first solution of free AMP and a second solution of the second loaded polymer 602 having the exemplary structure depicted in FIG. 6 (e.g., conjugated with AMP) in accordance with one or more embodiments described herein. Repetitive description of like elements employed in other embodiments described herein is omitted for sake of brevity. As shown in the photos 1000, the right vial contains free AMP dispersed in PBS, and the left vial contains of the second loaded polymer 602 having the exemplary structure depicted in FIG. 6 (e.g., conjugated with AMP) dispersed in PBS. The various photos 1000 can show the state of the two solutions over a 360 minute time period.\nBoth solutions begin colorless, wherein the solutions become discolored in response to oxidation.", "data": [{"smiles": "CN1CCc2cccc3c2[C@H]1Cc1ccc(O)c(O)c1-3", "note": "[AMP, apomorphine]", "values": [{"measurement": "onset of oxidation", "result": "nearly immediately"}]}]}
